The values below come from patent US9326961B2, “Diet and methods for improving learning capacity, mood and behavior in mammals” (COAPE, LTD, priority 2010, dated 2016).

Molecules are shown by their SMILES.

The test system of one data set is horse. The note with it: horses, cited from earlier work.
A further data set has as its system dogs (slow learners). Briefly: Discrimination learning, T-maze test (Test B) after three weeks on assigned diet. The format is in vivo, dog. To be noted: diet supplementation, compared with adding tryptophan to the diet. Here is the method:
To determine the effect of diet on learning capability, 81 dogs of various ages, types and sex were recruited from dog training clubs and colleagues of the experimenter; however, one dog had to be withdrawn from the study. Inclusion into the study required that the dogs were not receiving any veterinary treatment or medication for behavioral problems. All dogs were in good health, having been fully vaccinated and wormed. Dogs were tested in simple tests that required no lengthy training time. […] Each dog's baseline learning capability was established on its performance in Test A. It was determined that 15 of the dogs were fast learners, while 65 were slow learners.
Each owner was supplied an information sheet advising how to introduce the new diet over a period of days, to ensure that no digestion problems occurred from a sudden change of food. The dogs remained on the assigned diet for a period of three weeks and their learning capability was re-evaluated according to their performance in Test B. Latency to learn the task was used as a measure of learning capability and specific displacement activities were monitored to evaluate the effect on various behavior patterns. […]
The dogs' latency to learn was measured in the time it took them, to achieve success, measured as 100% of correct responses in five consecutive trials. […]

`N[C@@H](Cc1c[nH]c2ccccc12)C(=O)O` [Tryptophan]: in the data set on horse (high doses given orally, presumably toxic hindgut metabolite), the toxicity entry was “may cause hemolytic anemia”. Moreover, in the data set on horse (high doses), the “effect on endurance capacity” value is on record as “reduce endurance capacity”. For the same compound, in the data set on horse (low doses), the behavioral effect result is on record as “mild excitement”.
`CC(C)C[C@H](N)C(=O)O` [leucine]: the “enhancing serotonin levels in the brain, as measured by improved behavior and learning ability” value in the data set on dogs (slow learners) is “as effective in enhancing serotonin levels in the brain as adding tryptophan to the diet”.
